Measurements published in patent US20250171447A1, “ADENOSINE RECEPTOR ANTAGONISTS, PHARMACEUTICAL COMPOSITIONS AND THEIR USE THEREOF” (Merck Sharp & Dohme LLC, priority 2022, published 2025).

Key:
[1] = target: human A2A adenosine receptor (Homo sapiens (Human), UniProt P29274); assay: A2A receptor affinity binding assay (radioligand filtration binding or SPA, [3H]SCH58261); details: membranes from HEK293 or CHO cells expressing human A2A; Method (A) filtration or Method (B) SPA
[2] = target: human A2B adenosine receptor (Homo sapiens (Human), UniProt P29275); assay: A2B binding affinity radioligand filtration binding assay; details: membranes from HEK293 cells expressing human A2B; tritiated proprietary A2B antagonist
human A2B adenosine receptor, sequence (P29275 whole entry): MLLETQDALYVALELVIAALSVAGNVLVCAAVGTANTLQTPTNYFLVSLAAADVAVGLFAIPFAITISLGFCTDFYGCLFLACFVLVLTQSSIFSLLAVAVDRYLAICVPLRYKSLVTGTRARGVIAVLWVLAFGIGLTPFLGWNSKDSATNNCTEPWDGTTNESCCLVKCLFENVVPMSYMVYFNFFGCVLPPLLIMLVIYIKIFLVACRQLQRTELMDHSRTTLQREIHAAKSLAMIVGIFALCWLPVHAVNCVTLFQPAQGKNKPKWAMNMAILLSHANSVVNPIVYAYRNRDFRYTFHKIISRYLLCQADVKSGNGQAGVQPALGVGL

human A2A adenosine receptor, sequence (P29274 whole entry): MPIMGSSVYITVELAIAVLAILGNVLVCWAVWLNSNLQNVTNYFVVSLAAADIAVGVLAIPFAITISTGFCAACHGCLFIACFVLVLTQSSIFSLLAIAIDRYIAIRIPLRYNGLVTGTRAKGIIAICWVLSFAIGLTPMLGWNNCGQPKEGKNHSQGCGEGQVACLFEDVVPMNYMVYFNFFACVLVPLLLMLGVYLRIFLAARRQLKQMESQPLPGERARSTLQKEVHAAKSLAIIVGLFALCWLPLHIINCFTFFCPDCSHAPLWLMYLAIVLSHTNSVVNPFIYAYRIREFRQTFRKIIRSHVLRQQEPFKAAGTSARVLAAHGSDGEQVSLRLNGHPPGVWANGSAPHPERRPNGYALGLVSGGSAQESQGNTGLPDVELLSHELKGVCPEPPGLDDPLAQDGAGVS

Row | IC50 [1] | IC50 [2] | SMILES
1 | 17.4 nM | 26.3 nM | COc1cccc2c1nc(N)n1nc([C@@H]3C[C@H]3c3ccc(C(C)(C)O)cc3)nc21 [Ex-1, 2-(4-((1r,2r)-2-(5-amino-7-methoxy-[1,2,4]triazolo[1,5-c]quinazolin-2-yl)cyclopropyl)phenyl)propan-2-ol]
2 | 2.6 nM | 50.4 nM | COc1cccc2c1nc(N)n1nc([C@@H]3C[C@H]3c3cnn(C)c3)nc21 [Ex-2, 7-methoxy-2-((1r,2r)-2-(1-methyl-1H-pyrazol-4-yl)cyclopropyl)-[1,2,4]triazolo[1,5-c]quinazolin-5-amine]
3 | 0.4 nM | 25 nM | CNC(=O)c1cccc(C2CC2c2nc3c4cccc(OC)c4nc(N)n3n2)c1 (stereo not drawn) [Ex-4, 3-[2-(5-amino-7-methoxy[1,2,4]triazolo [1,5-c]quinazolin-2-yl)cyclopropyl]-N-methylbenzamide]
4 | 0.5 nM | 15.4 nM | COc1cccc2c1nc(N)n1nc(C3CC3c3cccc(NC(C)=O)c3)nc21 (stereo not drawn) [Ex-5, N-{3-[2-(5-amino-7-methoxy[1,2,4]triazolo [1,5-c]quinazolin-2-yl)cyclopropyl]phenyl} acetamide]
5 | 0.9 nM | 13.2 nM | COc1cccc2c1nc(N)n1nc(C3CC3c3ccc4c(c3)C(=O)NC4)nc21 (stereo not drawn) [Ex-6, 6-[2-(5-amino-7-methoxy[1,2,4]triazolo [1,5-c]quinazolin-2-yl)cyclopropyl]-2,3-dihydro-1H-isoindol-1-one]
6 | 1.3 nM | 66.1 nM | COc1cccc2c1nc(N)n1nc(C3CC3c3cn4ccnc4cc3C)nc21 (stereo not drawn) [Ex-7]
7 | 1.5 nM | 31 nM | COc1cccc2c1nc(N)n1nc(C3CC3c3ccc4c(c3)CNC4=O)nc21 (stereo not drawn) [Ex-8, 5-[2-(5-amino-7-methoxy[1,2,4]triazolo [1,5-c]quinazolin-2-yl)cyclopropyl]-2,3-dihydro-1H-isoindol-1-one]
8 | 2 nM | 337 nM | COc1cccc2c1nc(N)n1nc(C3CC3c3ccc4nnc(C)n4c3)nc21 (stereo not drawn) [Ex-9, 7-methoxy-2-[2-(3-methyl[1,2,4]triazolo [4,3-a]pyridin-6-yl)cyclopropyl][1,2,4] triazolo[1,5-c] quinazolin-5-amine]
9 | 2.6 nM | 45.4 nM | COc1cccc2c1nc(N)n1nc(C3CC3C)nc21 (stereo not drawn) [Ex-10, 7-methoxy-2-[2-methylcyclopropyl] [1,2,4]triazolo[1,5-c] quinazolin-5-amine]
10 | 3.1 nM | 78.4 nM | COc1cccc2c1nc(N)n1nc(C3CC3c3ccc(C)nc3)nc21 (stereo not drawn) [Ex-11, 7-methoxy-2-[2-(6-methylpyridin-3-yl)cyclopropyl][1,2,4] triazolo[1,5-c] quinazolin-5-amine]
11 | 3.2 nM | 281 nM | COc1cccc2c1nc(N)n1nc(C3CC3c3ccccc3[C@@H](C)O)nc21 (stereo partly drawn) [Ex-12, (1R)-1-{2-[2-(5-amino-7-methoxy[1,2,4]triazolo [1,5-c]quinazolin-2-yl)cyclopropyl]phenyl} ethan-1-ol]
12 | 3.3 nM | 152 nM | COc1cccc2c1nc(N)n1nc(C3CC3c3ccc4nncn4c3)nc21 (stereo not drawn) [Ex-13, 7-methoxy-2-[2-([1,2,4]triazolo[4,3-a]pyridin-6-yl)cyclopropyl][1,2,4] triazolo[1,5-c] quinazolin-5-amine]
13 | 3.3 nM | 56.1 nM | CCn1cc(C2CC2c2nc3c4cccc(OC)c4nc(N)n3n2)cn1 (stereo not drawn) [Ex-14, 2-[2-(1-ethyl-1H-pyrazol-4-yl)cyclopropyl]-7-methoxy[1,2,4]triazolo [1,5-c]quinazolin-5-amine]
14 | 3.4 nM | 1840 nM | COc1cccc2c1nc(N)n1nc(C3CC3c3ccccc3[C@H](C)O)nc21 (stereo partly drawn) [Ex-15, (1S)-1-{2-[2-(5-amino-7-methoxy[1,2,4]triazolo [1,5-c]quinazolin-2-yl)cyclopropyl]phenyl} ethan-1-ol]
15 | 4 nM | 15.5 nM | COc1cccc2c1nc(N)n1nc(C3CC3c3cncc(C(C)(C)O)c3)nc21 (stereo not drawn) [Ex-16, 2-{5-[2-(5-amino-7-methoxy[1,2,4]triazolo [1,5-c]quinazolin-2-yl)cyclopropyl]pyridin-3-yl} propan-2-ol]
16 | 4.1 nM | 40.7 nM | COc1cccc2c1nc(N)n1nc(C3CC3c3ccc(C(N)=O)c(F)c3)nc21 (stereo not drawn) [Ex-17, 4-[2-(5-amino-7-methoxy[1,2,4]triazolo [1,5-c]quinazolin-2-yl)cyclopropyl]-2-fluorobenzamide]
17 | 5.5 nM | 252 nM | COc1cccc2c1nc(N)n1nc(C3CC3c3cncc(F)c3)nc21 (stereo not drawn) [Ex-18, 2-[2-(5-fluoropyridin-3-yl)cyclopropyl]-7-methoxy[1,2,4]triazolo [1,5-c]quinazolin-5-amine]
18 | 5.8 nM | 32.9 nM | CNC(=O)c1ccc(C2CC2c2nc3c4cccc(OC)c4nc(N)n3n2)cc1 (stereo not drawn) [Ex-19, 4-[2-(5-amino-7-methoxy[1,2,4]triazolo [1,5-c]quinazolin-2-yl)cyclopropyl]-N-methylbenzamide]

Row | IC50 [1] | IC50 [2] | SMILES
19 | 6.5 nM | 395 nM | COc1cccc2c1nc(N)n1nc(C3CC3c3cccc4c3CNC4=O)nc21 (stereo not drawn) [Ex-20, 4-[2-(5-amino-7-methoxy[1,2,4]triazolo [1,5-c]quinazolin-2-yl)cyclopropyl]-2,3-dihydro-1H-isoindol-1-one]
20 | 6.9 nM | 104 nM | COc1cccc2c1nc(N)n1nc(C3CC3c3ccc4cnn(C)c4c3)nc21 (stereo not drawn) [Ex-21, 7-methoxy-2-[2-(1-methyl-1H-indazol-6-yl)cyclopropyl][1,2,4] triazolo[1,5-c] quinazolin-5-amine]
21 | 7.7 nM | 133 nM | COc1cccc2c1nc(N)n1nc(C3CC3c3cnc(NCCO)nc3)nc21 (stereo not drawn) [Ex-22, 2-({5-[2-(5-amino-7-methoxy[1,2,4]triazolo [1,5-c]quinazolin-2-yl)cyclopropyl]pyrimidin-2-yl}amino)ethan-1-ol]
22 | 8.3 nM | 118 nM | COc1cccc2c1nc(N)n1nc(C3CC3c3cnn(CCO)c3)nc21 (stereo not drawn) [Ex-23, 2-{4-[2-(5-amino-7-methoxy[1,2,4]triazolo [1,5-c]quinazolin-2-yl)cyclopropyl]-1H-pyrazol-1-yl} ethan-1-ol]
23 | 9 nM | 42.6 nM | COc1cccc2c1nc(N)n1nc(C3CC3c3ccc4c(c3)NCCO4)nc21 (stereo not drawn) [Ex-24, 2-[2-(3,4-dihydro-2H-1,4-benzoxazin-6-yl)cyclopropy1]-7-methoxy[1,2,4]triazolo [1,5-c]quinazolin-5-amine]
24 | 9.9 nM | 96.3 nM | COc1cccc2c1nc(N)n1nc(C3CC3c3c[nH]nc3C(F)(F)F)nc21 (stereo not drawn) [Ex-25, 7-methoxy-2-{2-[3-(trifluoromethyl)-1H-pyrazol-4-yl]cyclopropyl} [1,2,4] triazolo[1,5-c] quinazolin-5-amine]
25 | 12.3 nM | 718 nM | COc1cccc2c1nc(N)n1nc(C3CC3c3cnc(C)nc3)nc21 (stereo not drawn) [Ex-26, 7-methoxy-2-[2-(2-methylpyrimidin-5-yl)cyclopropyl][1,2,4] triazolo[1,5-c] quinazolin-5-amine]
26 | 97.4 nM | 864 nM | COc1cccc2c1nc(N)n1nc(C3CC3c3cnn(C)c3)nc21 (stereo not drawn) [Ex-27, 7-methoxy-2-[2-(1-methyl-1H-pyrazol-4-yl)cyclopropyl][1,2,4] triazolo[1,5-c] quinazolin-5-amine]
27 | 43 nM | 906 nM | COc1cccc2c1nc(N)n1nc(C3(CO)CC3)nc21 [Ex-30, [1-(5-amino-7-methoxy[1,2,4]triazolo [1,5-c]quinazolin-2-yl)cyclopropyl]methanol]
28 | 0.1 nM | 18.2 nM | COc1cccc2c1nc(N)n1nc([C@@H]3C[C@H]3c3ccccc3)nc21 [Ex-34, 7-methoxy-2-[(1r,2r)-2-phenylcyclopropyl] [1,2,4]triazolo[1,5-c] quinazolin-5-amine]
29 | 17.7 nM | 1980 nM | COc1cccc2c1nc(N)n1nc(C3(c4ccccc4)CC3)nc21 [Ex-37, 7-methoxy-2-(1-phenylcyclopropyl) [1,2,4]triazolo[1,5-c] quinazolin-5-amine]
30 | 1.4 nM | 7.6 nM | COc1cccc2c1nc(N)n1nc(C3CC3Cc3ccc(F)cc3)nc21 (stereo not drawn) [Ex-40, 2-(2-(4-fluorobenzyl)cyclopropyl)-7-methoxy-[1,2,4]triazolo[1,5-c]quinazolin-5-amine]
31 | 7 nM | 127 nM | COc1cccc2c1nc(N)n1nc(C3CC3Cc3ccc(F)cc3)nc21 (stereo not drawn) [Ex-41]
32 | 10.9 nM | 10.2 nM | COc1cccc2c1nc(N)n1nc([C@H]3C[C@H](c4ccc(C(C)(C)O)cc4)C3)nc21 [Ex-43, 2-(4-((1r,3r)-3-(5-amino-7-methoxy-[1,2,4]triazolo[1,5-c]quinazolin-2-yl)cyclobutyl)phenyl)propan-2-ol]
33 | 18.3 nM | 69 nM | COc1cccc2c1nc(N)n1nc([C@H]3C[C@H](c4cccc(C(C)(C)O)c4)C3)nc21 [Ex-46, 2-{3-[trans-3-(5-amino-7-methoxy [1,2,4]triazolo [1,5-c]quinazolin-2-yl)cyclobutyl]phenyl} propan-2-ol]
34 | 9.8 nM | 10.6 nM | COc1cccc2c1nc(N)n1nc([C@H]3C[C@@H](c4cccc(C(C)(C)O)c4)C3)nc21 [Ex-47, 2-{3-[cis-3-(5-amino-7-methoxy [1,2,4]triazolo [1,5-c]quinazolin-2-yl)cyclobutyl]phenyl} propan-2-ol]
35 | 4.3 nM | 1.8 nM | COc1cccc2c1nc(N)n1nc([C@H]3C[C@@H](c4ccc(C(C)(C)N)cn4)C3)nc21 [Ex-67, 2-((1s,3s)-3-(5-(2-aminopropan-2-yl)pyridin-2-yl)cyclobutyl)-7-methoxy-[1,2,4]triazolo[1,5-c]quinazolin-5-amine]

Row | SMILES | IC50 [1] | IC50 [2]
36 | COc1cccc2c1nc(N)n1nc(C3CC3c3ccc4c(c3)CCNC4)nc21 (stereo not drawn) [Ex-38, 7-methoxy-2-[(1r,2r)-2-(1,2,3,4-tetrahydroisoquinolin-6-yl)cyclopropyl]-1,10b-dihydro[1,2,4]triazolo [1,5-c]quinazolin-5-amine] | 1.1 nM | 3.1 nM
